This is an account of results in patent publication US5489600A, “Piperidyl amides, sulfonamides and sulfoxamides as inhibitors of cholesterol biosynthesis” (priority 1994, dated 1996).

The assay deals with T1, oxidosqualene cyclase (Rattus norvegicus, UniProt P48450).
T1 construct: Oxidosqualene cyclase is purified from rat liver microsomes; from tissue; host or cells: rat liver microsomes (lauryl maltoside solubilization, FPLC anion-exchange chromatography)
T1 sequence (P48450 1-733): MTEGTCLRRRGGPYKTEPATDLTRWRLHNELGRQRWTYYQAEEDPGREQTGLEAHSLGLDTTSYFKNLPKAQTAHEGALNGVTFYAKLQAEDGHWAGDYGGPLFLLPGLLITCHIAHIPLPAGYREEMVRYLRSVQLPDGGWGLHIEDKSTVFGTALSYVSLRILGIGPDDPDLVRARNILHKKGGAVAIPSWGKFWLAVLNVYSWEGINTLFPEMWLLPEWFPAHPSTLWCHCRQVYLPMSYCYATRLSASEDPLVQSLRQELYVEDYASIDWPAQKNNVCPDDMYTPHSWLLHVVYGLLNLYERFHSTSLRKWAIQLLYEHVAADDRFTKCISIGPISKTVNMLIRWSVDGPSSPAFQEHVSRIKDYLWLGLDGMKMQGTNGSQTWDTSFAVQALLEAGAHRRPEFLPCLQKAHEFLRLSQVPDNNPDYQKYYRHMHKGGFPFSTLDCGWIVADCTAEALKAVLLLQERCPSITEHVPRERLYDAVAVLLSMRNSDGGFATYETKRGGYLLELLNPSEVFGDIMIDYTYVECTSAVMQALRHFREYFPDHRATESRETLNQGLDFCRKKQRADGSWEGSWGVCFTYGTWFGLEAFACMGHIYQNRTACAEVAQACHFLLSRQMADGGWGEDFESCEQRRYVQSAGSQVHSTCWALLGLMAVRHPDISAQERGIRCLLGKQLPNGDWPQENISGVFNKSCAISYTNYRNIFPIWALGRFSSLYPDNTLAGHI
Nature of the assay: Inhibition of Purified Oxidosqualene Cyclase (I10). The assay is classed as biochemical. The settings on record: 10 μM test compound; oxidosqualene cyclase purified from rat liver microsomes; [3H]squalene monoepoxide 10 μM; pH 7.4. The procedure: Inhibition of Purified Oxidosqualene Cycloase (I10)
Oxidosqualene cyclase is purified from rat liver microsomes by the sequential methods of: 1) solubilization with the detergent lauryl maltoside and 2) FPLC anion-exchange chromatography. Compounds are tested to determine their ability to inhibit the conversion of squalene monoepoxide to lanosterol catalyzed by the purified oxidosqualene cyclase. The reaction mixture (final volume, 200 μL), contains potassium phosphate buffer (50 mM, pH 7.4), Na2 EDTA (500 μM), Tween (80 (0.1%), [3H]squalene monoepoxide (10 μM of the racemic mixture, 50 Ci/mol), test compound (10 μM) and purified oxidosqualene cyclase (50 μg). The reagents, prior to mixing are equilibrated at 37° C. for 10 minutes. The reaction is initiated by adding enzyme. The reaction is terminated by the addition of 5 mL of CHCl3 /MeOH (2:1, v/v), 0.8 mL of water and 10 μg each of squalene monoepoxide, squalene diepoxide, lanosterol and cholesterol. The organic layer is isolated and evaporated to dryness under nitrogen. The residue is dissolved in 200 μL of hexane/ethanol (99:1) and the sample is subjected to HPLC separation using a C18 reverse phase column eluted isocratically with 3.6% water in methanol. Radioactivity is quantitated using an in-line scintillation counter. Oxidosqualene cyclase activity is expressed as the percent inhibition of oxidosqualene cyclase activity at 10 μM test compound (I10 values).
Table 1 provides a summary of the testing data for the inhibition of oxidosqualene cyclase by compounds of formula (I) and formula (II).
With `CC(C)CCSCCCCC(=O)N1CCC(C(C)CO)CC1` (centres unmarked) [100,759, 1-(1-Oxopentyl-5-isopentylsulfide)-4-[(2-hydroxy-1-methyl)ethyl]piperidine], the inhibition (as a rule, the percentage by which the read-out fell short of the control) at 10 µM stood at 76%.
Under `CC(C)CCSCCCCC(=O)N1CCCCC1` [101,140, 1-(1-Oxopentyl-5-isopentylsulfide)piperidine] stands 38%.
For `CC(CO)C1CCN(C(=O)CCCCSc2ccccc2)CC1` (centres unmarked) [101,550, 1-(1-Oxopentyl-5-phenylsulfide)-4-[(2-hydroxy-1-methyl)ethyl]piperidine] the value was 82%; for `CCCCCCCCCCCC[S+]([O-])N1CCC(C(C)CO)CC1` (centres unmarked) [101,915, 1-(1-Sulfoxododecyl)-4-[(2-hydroxy-1-methyl)ethyl]piperidine], 46%.
For `CCCCCCCCCCCCS(=O)(=O)N1CCC(C(C)CO)CC1` (centres unmarked) [102,055, 1-(1-Sulfonododecyl)-4[(2-hydroxy-1-methyl)ethyl]piperidine], the inhibition at 10 µM was 29%.
